“Also recorded” adds a separate entry of the source. Read-outs that look alike come from different tables or passages of the source. Blank lines part the entries; values can stand above or below the compound they belong to.
Key:
GPR35 [1] = molecular target: T1, GPR35 (Homo sapiens, UniProt Q9HC97); assay: Ca2+ mobilization assay (Fluo-4) in HEK-GPR35-Gqo5 cells; assay type: cell-based; details: for Ca2+ moblization (HEK-GPR35-Gqo5): HEK293 cells co-expressing GPR35 and Gqo5, Fluo-4, compounds 10 μM; for Ca2+ mobilization signal in cells co-expressing GPR35 and Gqo5: engineered HEK293, 10 μM
T1 construct: myc; expressed in transfected cells; host or cells: HEK293, transient co-transfection (Lipofectamine LTX)
T1 sequence (Q9HC97 whole entry): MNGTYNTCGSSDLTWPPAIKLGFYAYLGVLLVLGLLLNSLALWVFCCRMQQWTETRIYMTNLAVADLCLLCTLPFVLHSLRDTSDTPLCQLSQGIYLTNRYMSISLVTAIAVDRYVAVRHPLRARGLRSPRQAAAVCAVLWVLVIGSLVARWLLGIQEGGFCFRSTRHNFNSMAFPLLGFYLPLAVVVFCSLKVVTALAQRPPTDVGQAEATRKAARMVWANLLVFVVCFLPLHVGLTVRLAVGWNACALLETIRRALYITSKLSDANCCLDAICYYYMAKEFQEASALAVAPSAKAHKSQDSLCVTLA

GPR35 [2] = assay: DMR desensitization / antagonism mode against GPR35 agonist-induced DMR in HT29 cells; assay type: cell-based, human; details: for Desenstization to GPR35 agonist: HT29 cells pretreated with compound, then GPR35 agonist
hERG channel [3] = molecular target: T2, hERG channel (Homo sapiens, UniProt Q12809)
T2 sequence (Q12809 whole entry): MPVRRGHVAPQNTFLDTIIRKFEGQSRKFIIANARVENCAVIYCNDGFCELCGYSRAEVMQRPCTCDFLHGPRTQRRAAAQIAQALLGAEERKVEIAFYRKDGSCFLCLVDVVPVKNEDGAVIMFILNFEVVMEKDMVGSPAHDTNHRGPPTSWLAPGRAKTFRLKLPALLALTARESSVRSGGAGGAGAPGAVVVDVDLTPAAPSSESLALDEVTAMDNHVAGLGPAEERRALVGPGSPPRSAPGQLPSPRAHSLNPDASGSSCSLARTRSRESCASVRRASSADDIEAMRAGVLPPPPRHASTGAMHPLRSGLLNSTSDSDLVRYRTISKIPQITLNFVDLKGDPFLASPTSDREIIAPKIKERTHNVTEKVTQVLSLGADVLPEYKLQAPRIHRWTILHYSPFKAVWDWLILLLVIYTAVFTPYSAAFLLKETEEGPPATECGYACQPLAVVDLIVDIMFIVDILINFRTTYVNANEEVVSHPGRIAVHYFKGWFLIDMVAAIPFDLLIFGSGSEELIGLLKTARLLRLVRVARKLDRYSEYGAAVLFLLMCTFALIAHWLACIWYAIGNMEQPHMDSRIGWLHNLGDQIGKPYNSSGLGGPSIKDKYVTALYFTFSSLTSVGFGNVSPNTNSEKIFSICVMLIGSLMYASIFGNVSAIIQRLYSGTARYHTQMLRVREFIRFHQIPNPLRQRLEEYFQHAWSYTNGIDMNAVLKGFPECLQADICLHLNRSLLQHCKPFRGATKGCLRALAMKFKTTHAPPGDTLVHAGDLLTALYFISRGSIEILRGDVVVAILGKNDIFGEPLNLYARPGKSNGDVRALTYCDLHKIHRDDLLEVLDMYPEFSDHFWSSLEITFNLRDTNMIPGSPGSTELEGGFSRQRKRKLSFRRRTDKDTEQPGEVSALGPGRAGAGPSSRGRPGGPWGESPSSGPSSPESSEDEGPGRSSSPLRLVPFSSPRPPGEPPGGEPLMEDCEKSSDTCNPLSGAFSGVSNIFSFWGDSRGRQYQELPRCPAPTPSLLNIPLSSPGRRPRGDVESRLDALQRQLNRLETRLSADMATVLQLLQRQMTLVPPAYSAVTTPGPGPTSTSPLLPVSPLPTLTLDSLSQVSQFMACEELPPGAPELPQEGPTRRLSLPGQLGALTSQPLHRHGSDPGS

hERG channel [4] = test system: hERG channel
HT29 cells [5] = assay: Fluo-4 Ca2+ mobilization assay in native HT29 cells; assay type: cell-based, human; details: Fluo-4 assay, 10 micromolar
Protocol: (§1) Fluo-4 Direct™ Calcium Assay Kit was purchased from Invitrogen (Starter pack, Cat. no. F10471). HEK293 cells (15000 cells/well) and HT29 cells (30000 cells/well) were seeded in polyD-lysine coated 384well plates (Corning Inc., Cat#3845), culture overnight at 37° C. The next day, Ca^2+ flux assay was performed following manufacturer's instruction and fluorescence ratio (340 nm/380 nm) was measured on FDSS (Functional Drug Screening System, Hamamatsu Photonics, Japan). Compounds were prepared as 10× stock (final concentration 10 μM) in the Ca^2+ assay buffer.
as §1, with “384 well” for “384well”, “Cat#3845) and cultured” for “Cat#3845), culture”, “day, the” for “day,”

[6] = test system: HEK293 cells expressing only Gqo5 or GPR35; assay: Ca2+ mobilization assay in HEK293 cells expressing only Gqo5 or only GPR35; assay type: cell-based, human; details: engineered HEK293, 10 μM
Protocol: (§2) Ca^2+ flux assay with transient transfected cells were carried out in 96-well plates (Corning Inc, Cat#3664). HEK293 cells (25000 cells/well) were seeded on day 1. Cells were transfected with either myc-GPR35 or HA-Gqo5 or co-transfected with both plasmids (myc-GPR35/HA-Gqo5 DNA ratio 2:1) using Lipofectamine LTX (Invitrogen) on day 2. Ca^2+ flux assay was performed 24 hours after transfection.
as §2, with “assays” for “assay”, “assays were” for “assay was”

GPR35 [7] = assay: GPR35 receptor internalization, immunofluorescence confocal imaging in HT29 cells; assay type: cell-based, human; details: anti-GPR35 antibody
Protocol: HT29 cells were plated on a 8-well chamber slide (10,000 cells/well) and incubated at 37° C. for 24 hrs. Next day, cells were fixed with 4% formaldehyde in 1×PBS for 15 min, followed by blocking and permeabilization in a buffer that contains 4% goat serum, 0.1% BSA, 0.1% Triton X100 in 1×PBS for 2 hrs. After 5 min wash with PBS, fixed cells were incubated with primary antibody anti-GPR35 (Abcam) (1:300) in 3% BSA/PBS buffer for 24 hrs, followed by incubation with secondary antibody Alexa Fluor® 488 goat anti-rabbit IgG (H+L) (Invitrogen) (1:250) in 3% BSA/PBS for 1 hr at room temperature. Cells were finally washed once with PBS and sealed with 1.5 mm thick glass cover-slip. Dried slides were stored at 4° C. until imaging. Confocal imaging was performed with Zeiss confocal microscope Axiovert 40. […] Confocal images were analyzed using MacBiophotonics Image J software (http://www.macbiophotonics.ca/downloads.htm).
HT29 cells were plated on a 8-well chamber slide (10,000 cells/well) and incubated at 37° C. for 24 hrs. […] Confocal images were analyzed using MacBiophotonics Image J software (http://www.macbiophotonics.ca/downloads.htm).
HT29 cells were plated on a 8-well chamber slide (10,000 cells/well) and incubated at 37° C. for 24 hrs. […] Confocal images were analyzed using MacBiophotonics Image J software (http://www.macbiophotonics.ca/downloads.htm). […]

HT29 cells [8] = assay: cAMP-Glo assay in HT29 cells; assay type: cell-based, human; details: for increase in intracellular cAMP concentration: HT29 cells, Gs readout; for suppression in intracellular cAMP concentration: forskolin co-stimulated HT29 cells, Gi readout
Protocol: (§3) Cells were plated in 384well plates (BD Bioscience, Cat#354660) (10000 cells/well for HEK293, 20000 cells/well for HT29). Cells were cultured in complete growth medium overnight. The next day cAMP-Glo assay was performed according to manufacturer's instruction (Promega, Cat#V1502). Cells were incubated with 20 μM compounds in induction buffer with or without 0.5 μM or 5 μM forskolin for 30 minutes before adding lysis buffer. Luminescence was measured using Tecan SafireII reader.
as §3, with “384 well” for “384well”, “Cat# 354660)” for “Cat#354660)”, “Cat#V 1502).” for “Cat#V1502).”
as §3, with “in 384 well” for “in 384well”, “Bioscience, Cat# 354660)” for “Bioscience, Cat#354660)”, “HT29). The cells” for “HT29). Cells”, “day a” for “day”, “Cat#V1502). The cells” for “Cat#V1502). Cells”

hERG channel [9] = molecular target: T2, hERG channel; assay: Automated patch clamp recording of hERG tail current (IonWorks); details: hERG tail current ratio post/pre-compound, 50 uM
HEK-293 cells = assay: DMR assay in parental HEK-293 cells; assay type: cell-based, human; details: zaprinast 10 μM
hERG channel [10] = molecular target: T2, hERG channel; parameters: expressed in transfected cells; details: 10 μM; cited from earlier work
hERG channel [11] = assay: Cross-desensitization DMR assay against hERG activator mallotoxin-induced DMR in HT29 cells
HEK-hERG cells [12] = test system: HEK-hERG cells
HEK-hERG cells [13] = assay: DMR assay in HEK-hERG cells; details: zaprinast 10 μM
[14] = listed as 6-bromo-3-methylthieno[3,2-b]thiophene-2-carboxylic acid

Compound: O=[N+]([O-])c1cc2nc(O)c(O)nc2cc1[N+](=O)[O-] [DNQX]
Ca2+ moblization (HEK-GPR35-Gqo5) (GPR35 [1]): active
Ca2+ mobilization signal in cells co-expressing GPR35 and Gqo5 (GPR35 [1]): active
Desenstization to GPR35 agonist (GPR35 [2]): desenstized
Electrophysiology (HEK-hERG) (hERG channel [3]): inactive
Desenstization to hERG activator (hERG channel [4]): partially desenstized

Ca2+ moblization (HEK-GPR35-Gqo5) (GPR35 [1]): inactive
Ca2+ mobilization signal in cells co-expressing GPR35 and Gqo5 (GPR35 [1]): triggered quite obvious Ca^2+ signal
Compound: Cc1c(C(=O)O)sc2c(Br)csc12 [Compound 13, 3-methyl-6-bromo-thieno[3,2-b]thiophene-2-carboxylic acid]
Desenstization to GPR35 agonist (GPR35 [2]): desenstized
desensitization / attenuation of the GPR35 agonist (zaprinast, NPPB) DMR signal in HT29 cells (GPR35 [2]; pretreatment, zaprinast 400 nM): caused desensitization
Ca2+ mobilization signal in HT29 cells (HT29 cells [5]; [14]): unable to cause any detectable Ca^2+ signal
Ca2+ mobilization signal in cells expressing only Gqo5 or GPR35 [6]: failed to cause any obvious Ca^2+ mobilization signal
GPR35 receptor internalization (GPR35 [7]; [14]): underwent internalization; also recorded: caused receptor internalization
increase in intracellular cAMP concentration (HT29 cells [8]): neither zaprinast nor 6-bromo-3-methylthieno[3,2-b]thiophene-2-carboxylic acid was able to cause increase in intracellular cAMP concentration
suppression in intracellular cAMP concentration (HT29 cells [8]): neither zaprinast nor 6-bromo-3-methylthieno[3,2-b]thiophene-2-carboxylic acid cause any suppression in intracellular cAMP concentration
Electrophysiology (HEK-hERG) (hERG channel [9]): activator

Compound: Cc1cccc(Nc2ccccc2C(=O)O)c1C [Mefenamic Acid]
Ca2+ moblization (HEK-GPR35-Gqo5) (GPR35 [1]): inactive
Desenstization to GPR35 agonist (GPR35 [2]): desenstized
Desenstization to hERG activator (hERG channel [4]): partially desenstized

Compound: CC(=O)c1c(O)c(C)c(O)c(Cc2c(O)c3c(c(C(=O)/C=C/c4ccccc4)c2O)OC(C)(C)C=C3)c1O [Mallotoxin, mallotoxin]
desensitization / attenuation of the GPR35 agonist (zaprinast, NPPB) DMR signal in HT29 cells (GPR35 [2]): dose-dependently, partially inhibited; also recorded: partially attenuate; also recorded: dose-dependently desensitized
Desenstization to GPR35 agonist (GPR35 [2]): desenstized
DMR signal in HEK-293 cells (HEK-293 cells): no detectable DMR signal (i.e., net-zero DMR)
shift of the half maximal activation voltage (V1/2) to the hyperpolarizing direction (hERG channel [10]): more than 25 mV
Electrophysiology (HEK-hERG) (hERG channel [9]): activator
Desenstization to hERG activator (hERG channel [11]; HT29 cells pretreated with compound, then hERG activator mallotoxin): desenstized

Compound: CCCOc1ccccc1-c1nc2nn[nH]c2c(=O)[nH]1 [zaprinast]
Ca2+ moblization (HEK-GPR35-Gqo5) (GPR35 [1]): active
Ca2+ mobilization signal in cells co-expressing GPR35 and Gqo5 (GPR35 [1]): triggered quite obvious Ca^2+ signal; also recorded: triggered a detectable Ca^2+ mobilization signal; also recorded: active
Desenstization to GPR35 agonist (GPR35 [2]): desenstized
desensitization / attenuation of the GPR35 agonist (zaprinast, NPPB) DMR signal in HT29 cells (GPR35 [2]; pretreatment, zaprinast 400 nM): dose-dependently caused desensitization
Ca2+ mobilization signal in HT29 cells (HT29 cells [5]): failed to cause any significant Ca^2+ mobilization; also recorded: unable to cause any detectable Ca^2+ signal; also recorded: did not result in any detectable Ca^2+ mobilization signal
Ca2+ mobilization signal in HT29 cells (HT29 cells [5]; listed as Zaprinast): did not result in any detectable Ca^2+ mobilization signal
Ca2+ mobilization signal in cells expressing only Gqo5 or GPR35 [6]: failed to cause any obvious Ca^2+ mobilization signal; also recorded: not in either parental cell, or the engineered cells expressing either GPR35 or Gqo5
GPR35 receptor internalization (GPR35 [7]): underwent internalization; also recorded: caused receptor internalization; also recorded: significant receptor internalization
increase in intracellular cAMP concentration (HT29 cells [8]): neither zaprinast nor 6-bromo-3-methylthieno[3,2-b]thiophene-2-carboxylic acid was able to cause increase in intracellular cAMP concentration
suppression in intracellular cAMP concentration (HT29 cells [8]): neither zaprinast nor 6-bromo-3-methylthieno[3,2-b]thiophene-2-carboxylic acid cause any suppression in intracellular cAMP concentration
DMR signal in HEK-293 cells (HEK-293 cells): net-zero DMR signal
impact on the mallotoxin DMR signal in HEK-hERG cells (HEK-hERG cells [12]): little or no impact
DMR signal in HEK-hERG cells (HEK-hERG cells [13]): net-zero DMR signal
Electrophysiology (HEK-hERG) (hERG channel [9]): inactive
attenuation of the mallotoxin DMR signal in HT29 cells (hERG channel [11]; pretreatment, mallotoxin 16 micromolar): dose-dependently, partially attenuated; also recorded: partially attenuate; also recorded: dose-dependently desensitized

Source: US20120022116A1, “COMPOSITIONS AND METHODS FOR THE TREATMENT OF PATHOLOGICAL CONDITION(S) RELATED TO GPR35 AND/OR GPR35-HERG COMPLEX” (priority 2010, published 2012)
